{
  "source": "paper PMC7863742",
  "about": "“Sensitive Fluorescence Assay for the Detection of Alkaline Phosphatase Based on a Cu^2+-Thiamine System” (Sensors (Basel, Switzerland), 2021)",
  "target": "Alkaline phosphatase (ALP)",
  "assay": "Cu2+-thiamine fluorescence assay of ALP hydrolysis of ascorbic acid 2-phosphate",
  "format": "biochemical",
  "data": [
    {"molecule": "[O]=[V]([OH])([OH])[OH]", "note": "[Na3VO4]", "values": [
      {"measurement": "IC50", "result": 262, "unit": "µM"}
    ]}
  ]
}
